Test results published in patent US20170056336A1, “CO-TARGETING ANDROGEN RECEPTOR SPLICE VARIANTS AND MTOR SIGNALING PATHWAY FOR THE TREATMENT OF CASTRATION-RESISTANT PROSTATE CANCER” (British Columbia Cancer Agency Branch, priority 2015, published 2017).

Key:
[1] = tested on: mTOR and AR pathways in LNCaP95 cells; experiment: Western blot analysis of mTOR and AR pathways in LNCaP95 cells; type: cell-based, human; details: for expression of UBE2C / pS6 levels: enzalutamide 10 uM; for pS6 levels: regardless of androgen status; for BEZ-235-increased protein levels of FL-AR, AR-V7 and PSA: elevations caused by BEZ-235 15 nM, LNCaP95 and LNCaP cells
Protocol: Cells were harvested and whole-cell lysate (10 to 15 ug) was subjected to SDS-PAGE. Antibodies used were: AR (1:1000; Santa Cruz), AR-V7 (1:400; Precision), p110α (1:500; BD Bioscience), p110β (1:1000; abcam), […] (1:1000; abcam), p110δ (1:1000; abcam), UBE2C (Boston Biochem; 1:1000), PTEN (1:1000), pS6 (1:2000), pAktThr308 (1:1000), pAktSer473 (1:2000), p4EBP1 (1:1000), total-Akt (1:1000), total-S6 (1:1000), total-4EBP1 (1:1000), pERK/MAPK (1:1000), total-ERK/MAPK (1:1000) from Cell Signaling technology (Danvers, Mass.). β-actin (1:10,000, Abcam) was used as a loading control.
Protein levels of PSA were undetectable in LNCaP95 cells.

[2] = tested on: mTOR and AR pathways in parental LNCaP cells; experiment: Western blot analysis of mTOR and AR pathways in parental LNCaP cells; type: cell-based, human; details: parental LNCaP cells, R1881 1 nM
AR NTD = target: T1, AR NTD (Homo sapiens, UniProt P10275); experiment: AR NTD transactivation assay in LNCaP cells; type: cell-based; details: IL-6 50 ng/ml, 24 h
T1 sequence (P10275 1-558): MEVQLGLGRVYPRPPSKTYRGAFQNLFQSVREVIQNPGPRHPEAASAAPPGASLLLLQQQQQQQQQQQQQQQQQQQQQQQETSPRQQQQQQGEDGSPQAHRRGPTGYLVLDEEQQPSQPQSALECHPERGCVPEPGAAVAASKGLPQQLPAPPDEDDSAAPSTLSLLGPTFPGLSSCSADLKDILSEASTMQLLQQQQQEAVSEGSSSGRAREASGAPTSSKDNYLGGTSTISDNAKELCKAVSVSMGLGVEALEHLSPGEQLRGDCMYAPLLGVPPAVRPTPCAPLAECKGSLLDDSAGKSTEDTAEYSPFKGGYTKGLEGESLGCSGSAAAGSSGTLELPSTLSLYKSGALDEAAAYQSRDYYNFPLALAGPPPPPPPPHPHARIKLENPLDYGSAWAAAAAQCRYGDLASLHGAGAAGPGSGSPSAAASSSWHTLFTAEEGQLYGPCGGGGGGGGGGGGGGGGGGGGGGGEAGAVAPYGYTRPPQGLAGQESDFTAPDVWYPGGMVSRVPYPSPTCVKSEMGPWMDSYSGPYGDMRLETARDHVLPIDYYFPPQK
Protocol: Transactivation assays of the AR NTD were performed in LNCaP and LNCaP95 cells cotransfected with p5xGal4UAS-TATA-luciferase and AR NTD-Gal4DBD (FIG. 2D). […] LNCaP95 cells were harvested 24 h after the treatment of indicated compounds.
The AR NTD is essential for full transcriptional activities (Quayle, S. N. et. al., PNAS 2007, 104, 1331-1336). In LNCaP cells, transactivation of the AR NTD can be induced with IL-6 or by stimulation of the PKA pathway with FSK. In LNCaP95 cells, there is high intrinsic activity of the AR NTD which cannot be further induced by stimulation of these pathways.

[3] = tested on: genes regulated by FL-AR and AR-V7 in LNCaP95 cells; experiment: Gene expression analysis (quantitative real-time RT-PCR) in LNCaP95 cells; type: cell-based, human
LNCaP95 cells = experiment: Cell proliferation BrdU immunoassay; type: cell-based, human; details: R1881 0.1 nM, 48 h, serum-free, Compound A 25 uM, enzalutamide 10 uM, BEZ-235 15 nM, everolimus 10 nM
LNCaP95 xenografts [4] = experiment: Western blot analyses of protein lysates from xenografts; type: in vivo, mice
LNCaP95 xenografts [5] = experiment: Immunohistochemistry of harvested xenografts; type: in vivo, mice
AR = target: T2, AR (Homo sapiens, UniProt P10275, T878A); experiment: PSA-, ARR3-, PB-luciferase AR reporter assay in LNCaP95 cells; details: LNCaP95 cells treated with androgen and BEZ-235 15 nM
T2 sequence (P10275 1-920 T878A): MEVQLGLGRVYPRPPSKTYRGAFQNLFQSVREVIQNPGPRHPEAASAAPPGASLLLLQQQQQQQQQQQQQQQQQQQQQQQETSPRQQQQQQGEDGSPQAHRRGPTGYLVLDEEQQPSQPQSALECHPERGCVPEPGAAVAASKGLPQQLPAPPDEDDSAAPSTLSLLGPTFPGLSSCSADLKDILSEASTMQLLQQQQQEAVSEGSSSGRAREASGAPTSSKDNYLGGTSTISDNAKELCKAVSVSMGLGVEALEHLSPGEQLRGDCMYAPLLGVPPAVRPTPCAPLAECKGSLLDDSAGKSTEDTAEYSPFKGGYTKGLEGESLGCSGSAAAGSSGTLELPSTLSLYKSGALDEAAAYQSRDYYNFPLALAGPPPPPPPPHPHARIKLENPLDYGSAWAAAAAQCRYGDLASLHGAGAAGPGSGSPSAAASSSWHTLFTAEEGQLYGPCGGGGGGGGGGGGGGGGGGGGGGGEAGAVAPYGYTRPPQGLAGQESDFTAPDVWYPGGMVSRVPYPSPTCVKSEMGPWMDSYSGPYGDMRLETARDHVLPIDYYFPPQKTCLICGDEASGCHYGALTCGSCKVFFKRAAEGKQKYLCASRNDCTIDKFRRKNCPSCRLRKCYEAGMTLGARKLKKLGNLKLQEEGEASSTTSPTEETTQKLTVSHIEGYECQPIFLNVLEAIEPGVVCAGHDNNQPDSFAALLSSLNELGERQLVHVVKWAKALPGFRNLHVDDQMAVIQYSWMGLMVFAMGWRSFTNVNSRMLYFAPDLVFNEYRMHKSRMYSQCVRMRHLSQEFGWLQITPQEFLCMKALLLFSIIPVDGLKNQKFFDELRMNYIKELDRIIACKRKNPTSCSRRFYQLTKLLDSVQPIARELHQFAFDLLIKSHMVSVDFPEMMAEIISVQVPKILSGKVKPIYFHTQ

[6] = LNCaP95 cells, Compound A 25 uM
[7] = absence of androgen, with BEZ-235
[8] = in response to androgen, Compound A 35 uM
[9] = harvested tumors, Compound A 100 mg/kg, BEZ-235 5 mg/kg

For CC(C)(c1ccc(OC[C@H](O)CO)cc1)c1ccc(OC[C@H](O)CCl)cc1 [Compound A], the “expression of UBE2C” value [1, 6] was “markedly reduced”, the pS6 levels [1, 6] was “reduced” and the “levels of FKBP5” value ([1]; LNCaP95 cells, presence of androgen (R1881 1 nM), Compound A 25 uM) was “no effect”. For the same compound, the “BEZ-235-increased protein levels of FL-AR, AR-V7 and PSA” value [1] was “at least in part attenuated”, the “androgen-induced FKBP5” value [2] was “poor inhibitor” and the “androgen-induced levels of PSA” value [2] was “comparable to enzalutamide”. The “AR-NTD transactivation induced by IL-6” value (AR NTD) was “significantly inhibited”, the “transcript levels of AR-V7 target genes (UBE2C, CDC20, Akt1)” value ([3]; absence of androgen) was “consistently reduced” and the “BEZ-235-induced increase in transcript levels of AR-V7” value [3, 7] was “blocked”. For the same compound, the “BEZ-235-induced levels of PSA transcript” value [3, 7] was “blocked”, the “expression of FKBP5” value [3, 8] was “inhibited” and the “expression of KLK3” value [3, 8] was “inhibited”. The “expression of TMPRSS2” value [3, 8] was “inhibited”, the UBE2C levels ([3]; monotherapy, regardless of androgen) was “attenuated” and the “proliferation (BrdU incorporation)” value (LNCaP95 cells) was “inhibited”. The “levels of p4EBP1” value (LNCaP95 xenografts [4]; harvested tumors, normalized to total 4EBP1) was “no significant change”, the “levels of pAkt” value (LNCaP95 xenografts [4]; harvested tumors, normalized to total Akt) was “no significant change” and the “protein levels of UBE2C” value (LNCaP95 xenografts [4]; [9]) was “reduced”. The “protein levels of pS6” value (LNCaP95 xenografts [4]; [9]) was “reduced”, the “protein levels of FKBP5” value (LNCaP95 xenografts [4]; in vivo, monotherapies) was “reduced” and the “apoptosis (TUNEL staining)” value (LNCaP95 xenografts [5]) was “increased”. For the same compound, the “proliferation (Ki67 staining)” value (LNCaP95 xenografts [5]) was “significantly decreased”, the UBE2C staining (LNCaP95 xenografts [5]; immunohistochemistry) was “reduced” and the pS6 staining (LNCaP95 xenografts [5]; immunohistochemistry) was “reduced”. The “BEZ-235-increased PSA-, ARR3- and PB-luciferase activities” value (AR) was “blocked”.
For CNC(=O)c1ccc(N2C(=S)N(c3ccc(C#N)c(C(F)(F)F)c3)C(=O)C2(C)C)cc1F [enzalutamide, 4-(3-(4-cyano-3-(trifluoromethyl)phenyl)-5,5-dimethyl-4-oxo-2-thioxoimidazolidin-1-yl)-2-fluoro-N-methylbenzamide], the “expression of UBE2C” value [1, 6] was “not”, the pS6 levels [1, 6] was “decreased” and the “BEZ-235-increased protein levels of FL-AR, AR-V7 and PSA” value [1] was “at least in part attenuated”. The “androgen-induced levels of PSA” value [2] was “blocking”.
In the case of CO[C@H]1C[C@@H]2CC[C@@H](C)[C@@](O)(O2)C(=O)C(=O)N2CCCC[C@H]2C(=O)O[C@H]([C@H](C)C[C@@H]2CC[C@@H](OCCO)[C@H](OC)C2)CC(=O)[C@H](C)/C=C(\C)[C@@H](O)[C@@H](OC)C(=O)[C@H](C)C[C@H](C)/C=C/C=C/C=C/1C [everolimus], the pAkt ([1]; LNCaP95 cells, BEZ-235 15 nM, everolimus) is reported as “without decreasing”, the “levels of UBE2C” value ([1]; LNCaP95 cells, absence of androgen, everolimus) is reported as “reduced” and the “protein levels of FL-AR” value ([1]; LNCaP95 cells, titration experiments) is reported as “increased”. For the same compound, the pS6 ribosomal protein ([1]; LNCaP95 cells, titration, BEZ-235 15 nM, everolimus 10 nM) was “reduced” and the “proliferation (BrdU incorporation)” value (LNCaP95 cells) was “inhibited”.
